Results from US11957931B2, “Compositions and methods for treating vitiligo” (YALE UNIVERSITY, priority 2017, dated 2024).
Read-outs that look alike come from different tables or passages of the source. Marks after values point to notes of the source that are not given here.

Key:
[1] = tested on: patients with vitiligo; assay: Retrospective case series of vitiligo patients treated with tofacitinib: BSA of depigmentation / repigmentation; format: in vivo, human; design: key to Responder Status: R, responder; NR, non-responder
Excerpt: (§3) This study is a retrospective case series of 10 patients seen between July 2014 and January 2017. […] Clinical and demographic information, including biological sex, age, disease duration and course, medical history, family history, and prior treatments were collected. Before initiating tofacitinib, all patients underwent baseline laboratory evaluation including comprehensive metabolic panel, complete blood cell count with differential, fasting lipid panel, QuantiFERON-TB Gold® ([…] Limited, Melbourne, Australia), and screening for HIV and hepatitis B and C. Body surface area (BSA) of depigmentation was assessed prior to and at the end of treatment. Serial laboratory monitoring, physical exams, and review of systems were used to monitor for adverse events.

[2] = tested on: CD8^+ T cells; assay: Suction blister sampling, flow cytometry of CD8+ T cells in blister fluid; format: in vivo, human; details: Patient 1; after 10 months of tofacitinib vs baseline; responding, non-responding and non-lesional sites
Method: The Negative Pressure Instrument Model NP-4 (Electronic Diversities®, Finksburg, MD) was used to induce suction blisters (1 cm in diameter). Blisters formed at a pressure between 10-15 mm Hg negative pressure and at a constant temperature of 40° C. Once blisters formed, the blister fluid was aspirated 135 through the roof using a 1 mL insulin syringe. Cells in the blister fluid were pelleted at 330×g for 10 minutes and prepared for flow cytometry. […] Cells were blocked with Human TruStain and incubated with an antibody cocktail for 30 minutes at 4° C. Anti-human CD45 (2D1) and CD8 (SK1) were used at 1:20 dilution. Anti-human CD3 (OKT3) was used at 1:200 dilution (BioLegend) and Fixable Viability Dye eFluor 455UV at 1:1000 (Ebioscience).

[3] = tested on: patients with vitiligo; assay: Adverse event monitoring in the case series (laboratory monitoring, physical exams, review of systems); format: in vivo, human
Excerpt: as §3

[4] = tested on: melanocyte-specific T cells (HLA pentamer positive); details: Patient 1; after treatment vs baseline
Method: Cells were blocked with Human TruStain and incubated with an antibody cocktail for 30 minutes at 4° C. Anti-human CD45 (2D1) and CD8 (SK1) were used at 1:20 dilution. Anti-human CD3 (OKT3) was used at 1:200 dilution (BioLegend) and Fixable Viability Dye eFluor 455UV at 1:1000 (Ebioscience).

[5] = tested on: patients with vitiligo
[6] = tested on: CXCL9; assay: CXCL9 ELISA of blister fluid and serum; format: in vivo, human; details: Patient 1; following treatment
Method: (§1) The Negative Pressure Instrument Model NP-4 (Electronic Diversities®, Finksburg, MD) was used to induce suction blisters (1 cm in diameter). Blisters formed at a pressure between […] negative pressure and at a constant temperature of 40° C. Once blisters formed, the blister fluid was aspirated […] through the roof using a 1 mL insulin syringe. Cells in the blister fluid were pelleted at 330×g for 10 minutes and prepared for flow cytometry. The supernatant of the blister fluid was stored at −80° C. until analysis by enzyme-linked immunosorbent-assays (ELISA) for chemokines. None of the blisters were hemorrhagic.
(§2) Chemokines were assayed using the Human CXLC9/MIG DuoSet ELISA (DY392) and Human CXCL10/IP-10 DuoSet ELISA (DY266, R&D Systems) per the manufacturer's instructions. Optical densities were measured using a Perkin Elmer EnVision 2102® multilabel reader and analyzed using a 4 parameter […] standard curve.

[7] = tested on: CXCL10; assay: CXCL10 ELISA of blister fluid and serum; format: in vivo, human; details: Patient 1; following treatment
Method: as §1, §2

[8] = Patient 1, earlier course, 5 mg daily, over 5 months
[9] = Patient 2, 5 mg twice daily, after 8 months
[10] = Patient 3, 5 mg twice daily plus nbUVB 150 mJ every other day, after 11 months
[11] = Patient 4, after 14 months of therapy
[12] = Case 1, 5 mg twice daily plus full-body narrowband UV-B (400-500 mJ) twice weekly, after 3 months
[13] = Cases 1 and 2, at last follow-up

SMILES: C[C@@H]1CCN(C(=O)CC#N)C[C@@H]1N(C)c1ncnc2[nH]ccc12 [tofacitinib, 3-((3R,4R)-4-methyl-3-(methyl(7H-pyrrolo[2,3-d]pyrimidin-4-yl)amino)piperidin-1-yl)-3-oxopropanenitrile]
- Responder Status ([1]; Patient 1): R
- repigmentation at other body sites, including the trunk [1, 8]: only minimal repigmentation
- repigmentation of face, forearms and dorsal hands [1, 8]: near complete repigmentation
- repigmentation on re-treatment ([1]; Patient 1, 5 mg daily over 6 months, started in late spring): repigmentation of the face, forearms and dorsal hands, and the upper back and shoulders, but not the lower back or other sun-protected body sites
- BSA after to tofacitinib ([1]; Patient 1, BSA prior to tofacitinib 10%, treatment duration 10 months): 4%
- course after stopping tofacitinib ([1]; Patient 1, tofacitinib stopped for 8 months, areas that had previously responded): depigmentation recurred
- Responder Status ([1]; Patient 2): R
- repigmentation of dorsal hands and lower legs [1, 9]: islands of repigmentation
- repigmentation of face, neck (not submental area) and forearms [1, 9]: near-complete repigmentation
- sun-protected body sites [1, 9]: remained unchanged
- repigmentation of face, lateral and posterior neck, and forearms ([1]; Patient 2, 5 mg twice daily, over 3 months, sun exposure): partial repigmentation
- BSA after to tofacitinib ([1]; Patient 2, BSA prior to tofacitinib 28%, treatment duration 8 months): 24%
- maintenance of repigmentation ([1]; Patient 2, while taking tofacitinib during the winter, minimal sunlight exposure): Repigmentation was maintained
- Responder Status ([1]; Patient 3): R
- repigmentation of all other body sites [1, 10]: innumerable islands of repigmentation
- repigmentation of the back [1, 10]: > 75%
- repigmentation of the face [1, 10]: complete repigmentation
- BSA after to tofacitinib ([1]; Patient 3, BSA prior to tofacitinib 39%, treatment duration 11 months, concomitant nbUVB): 24%
- Responder Status ([1]; Patient 4): R
- BSA after to tofacitinib ([1]; Patient 4, BSA prior to tofacitinib 10%, treatment duration 14 months): 8%
- repigmentation of hands and sun-protected body sites [1, 11]: neither the hands nor sun-protected body sites, however, showed evidence of repigmentation
- repigmentation of the face [1, 11]: near-complete repigmentation
- Responder Status ([1]; Patient 5): R
- response of vitiligo to tofacitinib alone ([1]; Patient 5, 5-10 mg twice daily for 1 year, before nbUVB, hands disguised with makeup): unresponsive
- BSA after to tofacitinib ([1]; Patient 5, BSA prior to tofacitinib 2%, treatment duration 10 months, islands of repigmentation after 12 nbUVB treatments did not change BSA appreciably): 2%*
- repigmentation after adding nbUVB hand phototherapy ([1]; Patient 5, concomitant nbUVB, approximately 12 treatments (most recent dose 350 mJ)): islands of repigmentation were apparent
- Responder Status ([1]; Patient 6): NR
- BSA after to tofacitinib ([1]; Patient 6, BSA prior to tofacitinib 7%, treatment duration 3 months): 7%
- Responder Status ([1]; Patient 7): NR
- BSA after to tofacitinib ([1]; Patient 7, BSA prior to tofacitinib 1%, treatment duration 9 months): 1%
- Responder Status ([1]; Patient 8): NR
- BSA after to tofacitinib ([1]; Patient 8, BSA prior to tofacitinib 4%, treatment duration 15 months): 4%
- Responder Status ([1]; Patient 9): NR
- BSA after to tofacitinib ([1]; Patient 9, BSA prior to tofacitinib 6%, treatment duration 4 months): 6%
- Responder Status ([1]; Patient 10): NR
- BSA after to tofacitinib ([1]; Patient 10, BSA prior to tofacitinib 100%, treatment duration 11 months): 100%
- mean decrease of BSA involvement with vitiligo ([1]; in 5/10 patients, tofacitinib 5-10 mg QD-BID, average 9.5 months): 5.4 % BSA
- overall finding: repigmentation and light exposure ([1]; sunlight or nbUVB phototherapy): only led to repigmentation when there was concomitant light exposure
- repigmentation ([1]; the other 5 of 10 patients, tofacitinib 5-10 mg QD-BID): did not achieve any repigmentation
- CD8+ T cell number in blister fluid [2]: absolute numbers in each site were reduced
- serious adverse events ([3]; 10 patients): no serious adverse events
- adverse events overall ([3]; in vivo): mild and infrequent
- arthralgias ([3]; of 10 patients): one patient reported arthralgias
- mild elevations of lipids ([3]; of 10 patients): 4 patients
- upper respiratory infection (most common side effect) ([3]; of 10 patients): 2 patients
- weight gain ([3]; reported by one patient of 10): 5 pounds
- percentage of melanocyte-specific T cells (HLA pentamer positive) in PBMCs [4]: did not change with tofacitinib treatment, and even increased slightly
- repigmentation of neck, chest, forearms and shins [5, 12]: ≥ 75%
- repigmentation of the dorsal hands [5, 12]: only minimal freckling
- repigmentation of the face [5, 12]: nearly complete repigmentation
- repigmentation of the face ([5]; Case 2, 5 mg twice daily plus narrowband UV-B (360-500 mJ) 2 to 3 times weekly to only the face, after 3 months): about 50%
- facial repigmentation ([5]; Case 2, 5 mg twice daily plus narrowband UV-B (360-500 mJ) 2 to 3 times weekly to only the face, after 6 months): about 75%
- repigmentation at the other body sites (no UV-B) ([5]; Case 2, 5 mg twice daily, narrowband UV-B to only the face): No repigmentation occurred
- adverse effects [5, 13]: no adverse effects
- complete blood cell count, liver function tests, serum creatinine, fasting lipids [5, 13]: no abnormalities
- CXCL9 level in blister fluid [6]: undetectable
- CXCL9 level in serum [6]: undetectable
- CXCL10 level in blister fluid [7]: undetectable
- CXCL10 level in serum [7]: undetectable
